Values joined by “and” are separate entries in the source; they are usually repeats but may differ in a detail not shown here. Identical values can stand only once. Toxic doses and inconclusive results are not listed. Rule as the data show it: active = T/C of 150% or more; inactive = T/C below 125%.
Tested on: L1210 leukemia ip in BDF1 mice, survival T/C
Experiment: NCI In Vivo Anticancer Drug Screen. Data for tumor model L1210 Leukemia (intraperitoneal) in B6D2F1 (BDF1) mice
Conditions: endpoint: mean survival time, higher = longer survival
Procedure, shortened: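 Antitumor effect is assessed in tumor-bearing animals. Survival in the compound arm is compared with a vehicle-dosed control arm and expressed as their quotient.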

[1] = dose: 100.0 mg/kg/injection, schedule: Q01DX009 (ip), vehicle: saline with Tween-80
[2] = dose: 100.0 mg/kg/injection, schedule: Q04DX003 (ip), vehicle: saline with Tween-80
[3] = dose: 200.0 mg/kg/injection, schedule: Q01DX009 (ip), vehicle: saline with Tween-80
[4] = dose: 200.0 mg/kg/injection, schedule: Q04DX003 (ip), vehicle: saline with Tween-80
[5] = dose: 400.0 mg/kg/injection, schedule: Q04DX003 (ip), vehicle: saline with Tween-80
[6] = dose: 100.0 mg/kg/injection, schedule: Q01DX001 (ip), vehicle: Klucel (hydroxypropylcellulose) (HPC)
[7] = dose: 100.0 mg/kg/injection, schedule: Q01DX009 (ip), vehicle: Klucel (hydroxypropylcellulose) (HPC)
[8] = dose: 200.0 mg/kg/injection, schedule: Q01DX009 (ip), vehicle: Klucel (hydroxypropylcellulose) (HPC)
[9] = dose: 400.0 mg/kg/injection, schedule: Q01DX009 (ip), vehicle: Klucel (hydroxypropylcellulose) (HPC)
[10] = dose: 25.0 mg/kg/injection, schedule: Q01DX009 (ip), vehicle: saline with Tween-80
[11] = dose: 50.0 mg/kg/injection, schedule: Q04DX002 (ip), vehicle: saline with Tween-80
[12] = dose: 100.0 mg/kg/injection, schedule: Q04DX002 (ip), vehicle: saline with Tween-80
[13] = dose: 200.0 mg/kg/injection, schedule: Q04DX002 (ip), vehicle: saline with Tween-80
[14] = dose: 400.0 mg/kg/injection, schedule: Q04DX002 (ip), vehicle: saline with Tween-80
[15] = dose: 50.0 mg/kg/injection, schedule: Q01DX009 (ip), vehicle: saline
[16] = dose: 100.0 mg/kg/injection, schedule: Q01DX009 (ip), vehicle: saline
[17] = dose: 100.0 mg/kg/injection, schedule: Q04DX003 (ip), vehicle: saline
[18] = dose: 200.0 mg/kg/injection, schedule: Q04DX003 (ip), vehicle: saline
[19] = dose: 400.0 mg/kg/injection, schedule: Q04DX003 (ip), vehicle: saline
[20] = dose: 100.0 mg/kg/injection, schedule: Q01DX001 (ip), vehicle: carboxymethylcellulose (CMC)
[21] = dose: 200.0 mg/kg/injection, schedule: Q01DX001 (ip), vehicle: carboxymethylcellulose (CMC)
[22] = dose: 400.0 mg/kg/injection, schedule: Q01DX001 (ip), vehicle: carboxymethylcellulose (CMC)
[23] = dose: 100.0 mg/kg/injection, schedule: Q04DX003 (ip), vehicle: Klucel (hydroxypropylcellulose) (HPC)
[24] = dose: 200.0 mg/kg/injection, schedule: Q04DX003 (ip), vehicle: Klucel (hydroxypropylcellulose) (HPC)
[25] = dose: 400.0 mg/kg/injection, schedule: Q04DX003 (ip), vehicle: Klucel (hydroxypropylcellulose) (HPC)

Measured: T/C

CC(C)COC(C[N+](=O)[O-])C(Cl)(Cl)Cl (centres undefined)
inactive: [1] 98 % of control | [2] 92 % of control | [3] 89 % of control | [4] 90 % of control | [5] 92 % of control

CCOC(=O)C(C(=O)OCC)C1c2ccccc2C([N+](=O)[O-])c2ccccc21 (centres undefined)
inactive: [6] 91 % of control | [7] 96 % of control | dose: 200.0 mg/kg/injection, schedule: Q01DX001 (ip), vehicle: Klucel (hydroxypropylcellulose) (HPC) 96 % of control | [8] 89 % of control | dose: 400.0 mg/kg/injection, schedule: Q01DX001 (ip), vehicle: Klucel (hydroxypropylcellulose) (HPC) 91 % of control | [9] 103 % of control

Cc1cc(OC(=O)Nc2c(C)cccc2C)cc(C)c1Cl
inactive: dose: 25.0 mg/kg/injection, schedule: Q01DX001 (ip), vehicle: saline with Tween-80 93 % of control | [10] 111 % of control and 89 % of control | dose: 25.0 mg/kg/injection, schedule: Q04DX003 (ip), vehicle: saline with Tween-80 107 % of control | dose: 50.0 mg/kg/injection, schedule: Q01DX001 (ip), vehicle: saline with Tween-80 88 % of control | dose: 50.0 mg/kg/injection, schedule: Q01DX009 (ip), vehicle: saline with Tween-80 100 % of control and 114 % of control | [11] 94 % of control and 102 % of control | dose: 50.0 mg/kg/injection, schedule: Q04DX003 (ip), vehicle: saline with Tween-80 93 % of control | [2] 91 % of control | [3] 93 % of control | [4] 92 % of control | dose: 400.0 mg/kg/injection, schedule: Q01DX009 (ip), vehicle: saline with Tween-80 93 % of control | [5] 103 % of control

O=C(Cc1ccccc1)C(c1ccccc1)C(c1ccccc1)c1ccccc1 (centres undefined)
inactive: [12] 96 % of control | [13] 111 % of control | [14] 107 % of control

CC[N+]12CC=C3COC(=O)C(C)(O)C(C)(O)C(C)C(=O)OC(CC1)C32 (centres undefined)
inactive: [15] 92 % of control | [16] 97 % of control | dose: 200.0 mg/kg/injection, schedule: Q01DX009 (ip), vehicle: saline 92 % of control

C(=P(c1ccccc1)(c1ccccc1)c1ccccc1)[P+](c1ccccc1)(c1ccccc1)c1ccccc1.[Br][Cu][Br]
inactive: dose: 1.56 mg/kg/injection, schedule: Q01DX009 (ip), vehicle: Klucel (hydroxypropylcellulose) (HPC) 101 % of control | dose: 3.13 mg/kg/injection, schedule: Q01DX009 (ip), vehicle: Klucel (hydroxypropylcellulose) (HPC) 109 % of control | dose: 6.25 mg/kg/injection, schedule: Q01DX009 (ip), vehicle: Klucel (hydroxypropylcellulose) (HPC) 114 % of control

CN(C)CCc1nn[nH]n1
inactive: [17] 102 % of control | [18] 97 % of control | [19] 105 % of control

CC(C)=CCC(=O)OC(Cc1ccccc1)(c1ccccc1)C(C)CN(C)C (centres undefined)
inactive: dose: 25.0 mg/kg/injection, schedule: Q01DX009 (ip), vehicle: saline 101 % of control | [15] 98 % of control | [16] 98 % of control

O=C(CCCCC(=O)OCC1COCO1)OCC1COCO1 (centres undefined)
inactive: dose: 222.0 mg/kg/injection, schedule: Q01DX Z (ip), vehicle: methylcellulose (MC) 98 % of control | dose: 333.0 mg/kg/injection, schedule: Q01DX Z (ip), vehicle: methylcellulose (MC) 98 % of control | dose: 500.0 mg/kg/injection, schedule: Q01DX Z (ip), vehicle: methylcellulose (MC) 98 % of control

O=C1CC2=CC3C=CC(N1)C2C=C3 (centres undefined)
inactive: [2] 109 % of control | [4] 106 % of control | [5] 109 % of control

Cc1ccc2nn(-c3ccc(O)cc3)[n+]([O-])c2c1
inactive: [20] 102 % of control | [21] 107 % of control | [22] 93 % of control

CCn1/c(=N\N=O)sc2ccccc21
inactive: [6] 96 % of control

CC(=O)Nc1ccc([N+](=O)[O-])c(NC(C)=O)n1
inactive: [7] 103 % of control | [2] 101 % of control | [8] 100 % of control | [4] 93 % of control | [9] 97 % of control | [5] 112 % of control

CC(C)CC(NC(=O)CN)C(=O)O (centres undefined)
inactive: [17] 107 % of control | [18] 104 % of control | [19] 107 % of control

CC1(C)CC(=O)C=C(OCCc2ccccc2)C1
inactive: [2] 96 % of control | [4] 94 % of control | [5] 91 % of control

CC1(C)CN1C1=C(NC(=O)CCl)C(=O)c2ccccc2C1=O
inactive: [23] 87 % of control | [24] 94 % of control | [25] 91 % of control

CC1(C)C2CC3C(C(=O)O)CCCC3(C2)C1Br (centres undefined)
inactive: [7] 103 % of control | [23] 87 % of control | [8] 106 % of control | [24] 90 % of control | [9] 97 % of control | [25] 89 % of control

c1ccc([Si](OO[Si](c2ccccc2)(c2ccccc2)c2ccccc2)(c2ccccc2)c2ccccc2)cc1
inactive: [1] 86 % of control | [3] 87 % of control

CCN(CC)c1ccc(N(C(C)=O)C(C)=O)cc1
inactive: dose: 6.25 mg/kg/injection, schedule: Q01DX009 (ip), vehicle: saline with Tween-80 98 % of control | dose: 12.5 mg/kg/injection, schedule: Q01DX009 (ip), vehicle: saline with Tween-80 96 % of control | [10] 96 % of control

Cc1cc(C)c(-c2c(C)cc(C)cc2CBr)c(CBr)c1
inactive: [7] 108 % of control | [8] 99 % of control | [9] 99 % of control

COc1ccc(Oc2ccc(-c3ccccc3)cc2)cc1
inactive: [20] 98 % of control | [21] 102 % of control | [22] 96 % of control

COC(C(=O)O)c1ccc(Cl)cc1 (centres undefined)
inactive: [12] 98 % of control | [13] 91 % of control | [14] 91 % of control

CCCCN(CCCC)C(=N)C(=N)N(CCCC)CCCC
inactive: [11] 100 % of control | [12] 100 % of control

O=C(c1cccc([N+](=O)[O-])c1)C1CC1
inactive: dose: 25.0 mg/kg/injection, schedule: Q01DX001 (ip), vehicle: Klucel (hydroxypropylcellulose) (HPC) 97 % of control | dose: 50.0 mg/kg/injection, schedule: Q01DX001 (ip), vehicle: Klucel (hydroxypropylcellulose) (HPC) 101 % of control | [6] 95 % of control

Cc1cccc(C(=O)O)[n+]1[O-]
inactive: dose: 50.0 mg/kg/injection, schedule: Q01DX001 (ip), vehicle: carboxymethylcellulose (CMC) 100 % of control | [20] 95 % of control | [21] 98 % of control | [22] 100 % of control

O=C(O)c1ccc(I)cc1.[Ni]
inactive: dose: 25.0 mg/kg/injection, schedule: Q04DX002 (ip), vehicle: Klucel (hydroxypropylcellulose) (HPC) 100 % of control | dose: 50.0 mg/kg/injection, schedule: Q04DX002 (ip), vehicle: Klucel (hydroxypropylcellulose) (HPC) 100 % of control

— PubChem BioAssay AID248 (DTP/NCI, 2004)
